Laboratory results taken from ChEMBL document CHEMBL2150974 (J Med Chem, 2012).
The source made the active and inactive calls. The calls are words filed in the database; no cut-off is given here.

What was measured:
[1] = target: Serine/threonine-protein kinase PLK1 (Homo sapiens) (UniProt P53350); assay: Inhibition of PLK1 at 10 uM
[2] = target: Vascular endothelial growth factor receptor 2 (Homo sapiens) (UniProt P35968); assay: Inhibition of VEGFR2 at 10 uM
[3] = target: BDNF/NT-3 growth factors receptor (Homo sapiens) (UniProt Q16620); assay: Inhibition of TRKB at 10 uM
BDNF/NT-3 growth factors receptor (Homo sapiens), sequence (Q16620 32-822 limits assumed): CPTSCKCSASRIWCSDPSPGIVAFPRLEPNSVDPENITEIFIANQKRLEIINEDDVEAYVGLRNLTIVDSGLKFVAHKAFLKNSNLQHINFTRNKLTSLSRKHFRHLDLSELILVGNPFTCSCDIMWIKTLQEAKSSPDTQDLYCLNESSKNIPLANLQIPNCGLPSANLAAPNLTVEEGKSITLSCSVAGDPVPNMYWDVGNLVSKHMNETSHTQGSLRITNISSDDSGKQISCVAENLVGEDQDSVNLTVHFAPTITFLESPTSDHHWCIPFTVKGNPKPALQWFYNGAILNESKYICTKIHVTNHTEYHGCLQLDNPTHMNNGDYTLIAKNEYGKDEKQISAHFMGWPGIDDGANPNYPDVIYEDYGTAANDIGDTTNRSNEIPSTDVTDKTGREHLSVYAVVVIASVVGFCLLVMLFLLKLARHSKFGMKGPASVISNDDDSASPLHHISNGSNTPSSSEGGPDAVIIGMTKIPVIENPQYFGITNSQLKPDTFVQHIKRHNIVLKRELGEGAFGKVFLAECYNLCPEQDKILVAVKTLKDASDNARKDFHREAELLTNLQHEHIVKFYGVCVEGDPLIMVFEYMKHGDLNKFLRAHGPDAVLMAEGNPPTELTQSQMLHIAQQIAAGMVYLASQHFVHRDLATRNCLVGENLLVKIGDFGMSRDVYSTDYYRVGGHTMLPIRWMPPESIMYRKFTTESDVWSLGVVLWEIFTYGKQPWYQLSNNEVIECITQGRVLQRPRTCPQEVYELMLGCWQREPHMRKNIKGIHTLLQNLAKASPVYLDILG

[4] = target: Tyrosine-protein kinase receptor UFO (Homo sapiens) (UniProt P30530); assay: Inhibition of AXL at 10 uM
[5] = target: Hepatocyte growth factor receptor (Homo sapiens) (UniProt P08581); assay: Inhibition of MET at 10 uM
Hepatocyte growth factor receptor (Homo sapiens), sequence (P08581 whole entry): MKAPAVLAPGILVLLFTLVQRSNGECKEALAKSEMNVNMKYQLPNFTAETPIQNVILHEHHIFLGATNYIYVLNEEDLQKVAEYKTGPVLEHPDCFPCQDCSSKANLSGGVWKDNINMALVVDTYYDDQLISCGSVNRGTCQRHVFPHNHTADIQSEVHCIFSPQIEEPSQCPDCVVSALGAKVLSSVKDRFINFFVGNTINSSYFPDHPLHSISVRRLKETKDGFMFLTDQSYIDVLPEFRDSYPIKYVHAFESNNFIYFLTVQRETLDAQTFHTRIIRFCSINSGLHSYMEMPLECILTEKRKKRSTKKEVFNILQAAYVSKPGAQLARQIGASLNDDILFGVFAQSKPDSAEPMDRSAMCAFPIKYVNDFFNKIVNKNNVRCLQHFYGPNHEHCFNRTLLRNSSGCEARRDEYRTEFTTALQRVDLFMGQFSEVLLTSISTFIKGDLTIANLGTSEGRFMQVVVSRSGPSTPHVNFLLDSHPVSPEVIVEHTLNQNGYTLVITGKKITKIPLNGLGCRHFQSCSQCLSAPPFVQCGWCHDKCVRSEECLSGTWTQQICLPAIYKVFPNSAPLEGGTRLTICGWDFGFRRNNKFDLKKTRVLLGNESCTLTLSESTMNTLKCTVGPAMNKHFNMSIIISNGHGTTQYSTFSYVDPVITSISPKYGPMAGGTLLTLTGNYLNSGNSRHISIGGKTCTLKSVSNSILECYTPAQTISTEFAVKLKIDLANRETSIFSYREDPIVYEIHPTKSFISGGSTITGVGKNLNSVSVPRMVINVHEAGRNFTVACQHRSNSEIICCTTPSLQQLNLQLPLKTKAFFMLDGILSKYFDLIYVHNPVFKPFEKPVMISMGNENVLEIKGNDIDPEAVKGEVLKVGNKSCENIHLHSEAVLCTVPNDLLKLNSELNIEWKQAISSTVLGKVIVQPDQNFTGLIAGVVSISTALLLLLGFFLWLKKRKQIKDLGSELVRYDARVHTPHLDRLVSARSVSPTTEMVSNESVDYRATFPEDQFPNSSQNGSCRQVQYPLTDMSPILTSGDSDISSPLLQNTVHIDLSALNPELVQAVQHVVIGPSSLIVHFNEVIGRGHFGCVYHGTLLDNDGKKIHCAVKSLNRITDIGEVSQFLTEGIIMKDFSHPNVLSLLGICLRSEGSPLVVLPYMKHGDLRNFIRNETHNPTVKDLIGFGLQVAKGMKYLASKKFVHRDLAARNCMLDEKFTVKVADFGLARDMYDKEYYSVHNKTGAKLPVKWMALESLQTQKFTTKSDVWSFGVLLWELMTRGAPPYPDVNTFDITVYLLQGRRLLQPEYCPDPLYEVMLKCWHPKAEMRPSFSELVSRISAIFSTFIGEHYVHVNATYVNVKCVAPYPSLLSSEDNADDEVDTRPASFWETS

[6] = target: RAC-alpha serine/threonine-protein kinase (Homo sapiens) (UniProt P31749); assay: Inhibition of AKT1 at 10 uM
RAC-alpha serine/threonine-protein kinase (Homo sapiens), sequence (P31749 whole entry): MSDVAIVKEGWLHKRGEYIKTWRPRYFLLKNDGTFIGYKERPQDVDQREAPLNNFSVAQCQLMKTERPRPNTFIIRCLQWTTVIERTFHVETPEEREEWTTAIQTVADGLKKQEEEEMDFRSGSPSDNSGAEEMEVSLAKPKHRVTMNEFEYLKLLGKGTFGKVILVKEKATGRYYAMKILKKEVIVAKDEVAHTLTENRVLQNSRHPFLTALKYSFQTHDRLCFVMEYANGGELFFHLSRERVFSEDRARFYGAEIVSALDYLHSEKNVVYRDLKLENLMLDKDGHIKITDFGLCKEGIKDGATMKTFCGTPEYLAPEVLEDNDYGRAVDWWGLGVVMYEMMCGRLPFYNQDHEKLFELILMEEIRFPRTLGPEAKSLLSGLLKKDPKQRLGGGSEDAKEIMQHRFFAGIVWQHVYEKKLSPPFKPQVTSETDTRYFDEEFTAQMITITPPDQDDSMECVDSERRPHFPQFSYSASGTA

[7] = target: Insulin-like growth factor 1 receptor (Homo sapiens) (UniProt P08069); assay: Inhibition of IGF1R at 10 uM
[8] = target: Serine/threonine-protein kinase N1 (Homo sapiens) (UniProt Q16512); assay: Inhibition of PRK1 at 10 uM
[9] = test system: Serine/threonine-protein kinase B-raf (Homo sapiens), P15056 [V600E]; assay: Inhibition of BRAF V600E mutant at 10 uM
[10] = target: Casein kinase II subunit alpha (Homo sapiens) (UniProt P68400); assay: Inhibition of CK2alpha1 at 10 uM
Casein kinase II subunit alpha (Homo sapiens), sequence (P68400 whole entry, looked up): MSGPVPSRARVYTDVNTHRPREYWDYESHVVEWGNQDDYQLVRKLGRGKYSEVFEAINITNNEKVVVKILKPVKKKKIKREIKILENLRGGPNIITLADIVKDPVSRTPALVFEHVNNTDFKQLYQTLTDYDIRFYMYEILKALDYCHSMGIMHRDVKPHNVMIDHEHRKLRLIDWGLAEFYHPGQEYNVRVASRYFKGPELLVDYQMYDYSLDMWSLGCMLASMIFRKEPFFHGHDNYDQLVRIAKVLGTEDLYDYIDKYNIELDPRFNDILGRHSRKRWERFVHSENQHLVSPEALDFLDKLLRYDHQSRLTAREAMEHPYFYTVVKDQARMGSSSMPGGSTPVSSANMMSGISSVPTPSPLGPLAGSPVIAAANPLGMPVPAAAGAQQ

[11] = target: Focal adhesion kinase 1 (Homo sapiens) (UniProt Q05397); assay: Inhibition of FAK at 10 uM
[12] = target: T1, Mitogen-activated protein kinase 14 (Homo sapiens, UniProt Q16539); assay: Inhibition of p38alpha-dependent TNFalpha production in human whole blood
[13] = target: T2, NUAK family SNF1-like kinase 1 (Homo sapiens) (UniProt O60285); assay: Inhibition of ARK5 at 10 uM
T2 sequence (whole entry): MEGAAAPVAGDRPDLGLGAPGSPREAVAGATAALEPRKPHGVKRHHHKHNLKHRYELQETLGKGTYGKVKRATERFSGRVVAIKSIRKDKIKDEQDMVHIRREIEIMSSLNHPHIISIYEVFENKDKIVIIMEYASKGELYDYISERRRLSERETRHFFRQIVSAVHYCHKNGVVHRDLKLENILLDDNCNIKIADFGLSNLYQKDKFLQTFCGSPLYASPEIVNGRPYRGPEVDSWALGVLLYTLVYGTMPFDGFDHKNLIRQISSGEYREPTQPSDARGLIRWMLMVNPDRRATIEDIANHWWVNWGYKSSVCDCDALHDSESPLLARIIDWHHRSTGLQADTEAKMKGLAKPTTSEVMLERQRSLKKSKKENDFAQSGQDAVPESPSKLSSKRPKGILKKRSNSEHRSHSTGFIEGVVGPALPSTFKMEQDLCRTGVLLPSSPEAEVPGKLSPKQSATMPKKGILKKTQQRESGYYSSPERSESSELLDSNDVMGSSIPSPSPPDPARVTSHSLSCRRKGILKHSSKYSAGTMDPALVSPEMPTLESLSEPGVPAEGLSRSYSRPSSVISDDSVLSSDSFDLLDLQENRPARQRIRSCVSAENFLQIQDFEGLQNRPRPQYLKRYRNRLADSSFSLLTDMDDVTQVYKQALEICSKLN

[14] = target: T1, Mitogen-activated protein kinase 14; assay: Inhibition of p38alpha by immunosorbent based kinase assay
[15] = target: Insulin receptor (Homo sapiens) (UniProt P06213); assay: Inhibition of INSR at 10 uM
[16] = target: Aurora kinase B (Homo sapiens) (UniProt Q96GD4); assay: Inhibition of AuroraB at 10 uM
Aurora kinase B (Homo sapiens), sequence (Q96GD4 whole entry): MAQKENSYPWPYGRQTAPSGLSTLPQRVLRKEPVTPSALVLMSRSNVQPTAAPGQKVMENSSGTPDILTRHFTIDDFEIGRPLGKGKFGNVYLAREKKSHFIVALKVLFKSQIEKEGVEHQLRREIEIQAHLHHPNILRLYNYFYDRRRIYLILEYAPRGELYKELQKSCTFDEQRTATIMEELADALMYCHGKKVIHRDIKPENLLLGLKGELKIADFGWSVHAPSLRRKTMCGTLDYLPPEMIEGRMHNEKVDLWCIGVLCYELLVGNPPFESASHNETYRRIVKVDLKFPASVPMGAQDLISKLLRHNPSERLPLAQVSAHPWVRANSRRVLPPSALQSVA

[17] = target: Proto-oncogene tyrosine-protein kinase Src (Homo sapiens) (UniProt P12931); assay: Inhibition of SRC at 10 uM
[18] = target: T3, Serine/threonine-protein kinase PLK4 (Homo sapiens) (UniProt O00444); assay: Inhibition of SAK at 10 uM
T3 sequence (whole entry): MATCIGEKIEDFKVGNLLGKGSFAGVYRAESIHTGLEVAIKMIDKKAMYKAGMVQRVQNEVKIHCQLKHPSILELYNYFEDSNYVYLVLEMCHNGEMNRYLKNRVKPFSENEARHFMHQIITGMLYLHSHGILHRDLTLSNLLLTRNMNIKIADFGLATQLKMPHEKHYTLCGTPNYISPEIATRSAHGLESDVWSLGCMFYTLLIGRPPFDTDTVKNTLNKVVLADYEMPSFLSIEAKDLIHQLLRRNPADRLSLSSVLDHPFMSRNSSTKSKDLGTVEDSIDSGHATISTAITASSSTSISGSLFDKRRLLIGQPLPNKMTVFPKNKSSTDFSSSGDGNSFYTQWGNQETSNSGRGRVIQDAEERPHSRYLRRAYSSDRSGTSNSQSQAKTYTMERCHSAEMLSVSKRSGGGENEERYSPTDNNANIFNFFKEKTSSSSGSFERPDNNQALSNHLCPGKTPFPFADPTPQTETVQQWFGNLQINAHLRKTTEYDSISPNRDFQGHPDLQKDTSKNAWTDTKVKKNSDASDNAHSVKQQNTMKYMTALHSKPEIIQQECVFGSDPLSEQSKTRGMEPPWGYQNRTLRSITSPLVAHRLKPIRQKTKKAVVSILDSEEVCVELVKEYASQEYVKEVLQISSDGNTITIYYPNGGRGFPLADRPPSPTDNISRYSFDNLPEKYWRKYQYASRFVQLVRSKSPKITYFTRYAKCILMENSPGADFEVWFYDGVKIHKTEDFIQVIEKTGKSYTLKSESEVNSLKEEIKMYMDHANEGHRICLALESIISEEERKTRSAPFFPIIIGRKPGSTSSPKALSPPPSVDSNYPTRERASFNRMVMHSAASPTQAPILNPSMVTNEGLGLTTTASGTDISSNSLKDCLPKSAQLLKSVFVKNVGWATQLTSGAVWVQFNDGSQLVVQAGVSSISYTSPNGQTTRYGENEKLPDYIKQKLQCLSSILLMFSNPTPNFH

Vascular endothelial growth factor receptor 2 (Homo sapiens), sequence (P35968 whole entry): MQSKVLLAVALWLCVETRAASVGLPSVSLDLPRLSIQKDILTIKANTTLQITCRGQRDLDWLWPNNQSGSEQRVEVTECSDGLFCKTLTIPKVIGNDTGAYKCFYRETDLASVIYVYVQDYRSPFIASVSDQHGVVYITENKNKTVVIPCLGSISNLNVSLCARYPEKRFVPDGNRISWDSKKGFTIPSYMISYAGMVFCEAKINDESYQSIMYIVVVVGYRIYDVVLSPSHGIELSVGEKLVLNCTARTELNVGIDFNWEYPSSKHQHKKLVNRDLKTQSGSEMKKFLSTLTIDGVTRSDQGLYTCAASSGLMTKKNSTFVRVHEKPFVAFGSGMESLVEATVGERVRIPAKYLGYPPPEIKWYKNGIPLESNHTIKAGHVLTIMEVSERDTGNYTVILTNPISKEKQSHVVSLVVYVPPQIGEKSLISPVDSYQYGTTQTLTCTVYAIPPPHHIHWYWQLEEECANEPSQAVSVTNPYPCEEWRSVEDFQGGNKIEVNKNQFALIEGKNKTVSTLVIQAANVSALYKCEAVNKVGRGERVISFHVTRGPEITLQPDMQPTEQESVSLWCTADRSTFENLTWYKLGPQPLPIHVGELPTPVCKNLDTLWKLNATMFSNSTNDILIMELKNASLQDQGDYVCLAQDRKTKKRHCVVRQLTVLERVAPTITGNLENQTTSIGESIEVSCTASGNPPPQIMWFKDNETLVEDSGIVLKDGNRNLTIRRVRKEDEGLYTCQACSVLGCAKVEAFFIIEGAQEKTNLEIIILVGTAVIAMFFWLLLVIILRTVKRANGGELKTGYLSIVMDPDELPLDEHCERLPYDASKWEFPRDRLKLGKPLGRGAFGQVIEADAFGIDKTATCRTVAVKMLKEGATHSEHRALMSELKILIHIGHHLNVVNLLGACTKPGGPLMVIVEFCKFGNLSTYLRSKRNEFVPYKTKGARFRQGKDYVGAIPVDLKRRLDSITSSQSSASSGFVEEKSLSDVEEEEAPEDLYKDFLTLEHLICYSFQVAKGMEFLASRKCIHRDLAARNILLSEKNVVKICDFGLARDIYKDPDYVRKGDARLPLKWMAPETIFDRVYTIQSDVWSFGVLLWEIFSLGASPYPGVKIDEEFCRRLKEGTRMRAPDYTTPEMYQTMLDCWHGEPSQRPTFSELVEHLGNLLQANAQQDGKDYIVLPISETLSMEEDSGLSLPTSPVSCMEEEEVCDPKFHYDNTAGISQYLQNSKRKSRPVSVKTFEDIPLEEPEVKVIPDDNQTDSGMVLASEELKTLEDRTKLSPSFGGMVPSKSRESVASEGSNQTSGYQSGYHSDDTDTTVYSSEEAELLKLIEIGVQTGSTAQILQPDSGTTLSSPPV

SMILES	inhibition [1]	inhibition [2]	inhibition [3]	inhibition [4]	inhibition [5]	inhibition [6]	inhibition [7]	inhibition [8]	inhibition [9]	inhibition [10]	inhibition [11]	IC50 [12]	inhibition [13]	IC50 [14]	inhibition [15]	inhibition [16]	inhibition [17]	inhibition [18]
O=C1c2ccc(Nc3ccc(F)cc3F)cc2CCc2cc(OC[C@H](O)CO)ccc21	inactive	inactive	inactive	inactive	inactive	inactive	inactive	inactive	inactive	inactive	inactive	10400 nM	inactive	30 nM	inactive	inactive	inactive	inactive
COc1ccc2c(c1)C(=O)c1ccc(Nc3ccc(F)c(C)c3)cc1CC2	inactive	inactive	inactive	inactive	inactive	inactive	inactive	inactive	inactive	inactive	inactive	1900 nM	inactive	40 nM	inactive	inactive	inactive	inactive
COc1ccc2c(c1)C(=O)c1ccc(Nc3cc(F)cc(F)c3F)cc1CC2	inactive	inactive	inactive	inactive	inactive	inactive	inactive	inactive	inactive	inactive	inactive	4300 nM	inactive	50 nM	inactive	inactive	inactive	inactive
O=C1c2ccc(Nc3ccc(F)cc3F)cc2CCc2c(OCCN3CCOCC3)cccc21	inactive	inactive	inactive	inactive	inactive	inactive	inactive	inactive	inactive	inactive	inactive	200000 nM	inactive	30 nM	inactive	inactive	inactive	inactive

More lines, now with the values ahead:

inhibition [1]	inhibition [2]	inhibition [3]	inhibition [4]	inhibition [5]	inhibition [6]	inhibition [7]	inhibition [8]	inhibition [9]	inhibition [10]	inhibition [11]	IC50 [12]	inhibition [13]	IC50 [14]	inhibition [15]	inhibition [16]	inhibition [17]	inhibition [18]	SMILES
inactive	inactive	inactive	inactive	inactive	inactive	inactive	inactive	inactive	inactive	inactive	100000 nM	inactive	20 nM	inactive	inactive	inactive	inactive	O=C1c2ccc(Nc3ccc(F)cc3F)cc2CCc2c(OC[C@H](O)CO)cccc21
inactive	inactive	inactive	inactive	inactive	inactive	inactive	inactive	inactive	inactive	inactive	–	inactive	–	inactive	inactive	inactive	inactive	O=C1c2ccc(Nc3ccc(F)cc3F)cc2CCc2ccc(OC[C@@H](O)CO)cc21
inactive	inactive	inactive	inactive	inactive	inactive	inactive	inactive	inactive	inactive	inactive	320 nM	inactive	10 nM	inactive	inactive	inactive	inactive	CC1(C)OC[C@@H](CCOc2ccc3c(c2)C(=O)c2ccc(Nc4ccc(F)cc4F)cc2CC3)O1
inactive	inactive	inactive	inactive	inactive	inactive	inactive	inactive	inactive	inactive	inactive	25500 nM	inactive	900 nM	inactive	inactive	inactive	inactive	COc1ccc2c(c1)C(=O)c1ccc(Nc3ccc(C(F)(F)F)cc3N)cc1CC2
inactive	inactive	inactive	inactive	inactive	inactive	inactive	inactive	inactive	inactive	inactive	3900 nM	inactive	60 nM	inactive	inactive	inactive	inactive	COc1ccc2c(c1)C(=O)c1ccc(Nc3ccc(F)cc3C)cc1CC2
